Assays:
Assay type in all cases: cell-based
[1] = tested on: TNF-alpha expression in primary human CD14+ cells; assay: TNF-alpha ELISA in LPS-stimulated human CD14+ monocyte-derived macrophages; conditions: 2 hr LPS+4 hr Tx
Protocol: All chemicals, unless otherwise indicated, were procured from Sigma-Aldrich and used without additional purification. Stock solutions of Docosahexaenoic acid (DHA) in Dimethyl Sulfoxide (DMSO), Aspirin in physiologically buffered saline (PBS, pH 7.4) were prepared prior to their use. E. Coli derived Lipopolysaccharide (LPS) was reconstituted at 1 ug/mL, sterile filtered, and stored at −80 C until needed. RAW 264.7 murine macrophage cell line was obtained from ATCC (Manassas, Va.). Cells were thawed at passage 5 or 6 and were maintained in DMEM complete growth media supplemented with 10% FBS (Hyclone, GE Healthcare)+1% Penn/strep (Gibco) until needed. Peripheral blood derived primary human CD14+monocytes (BioreclamationlVT, Albany, N.Y.) were also maintained in DMEM growth media until needed. […]
(§1) Following each treatment, sample media was tested for inflammatory tumor necrosis factor alpha (TNF-alpha) expression using a commercially available sandwich ELISA kits designed for either mouse or human cells (R&D Systems). Samples showing reduction in TNF-alpha were further analyzed using the Resolvin D1 and Resolvin D2 ELISA kits (Cayman Chemical). Mean and standard deviations were calculated for each analyte. ELISA results were normalized to the total protein readings of each well. […]

[2] = tested on: Resolvin D1 (RvD1) expression and release; assay: Resolvin D1 ELISA, LPS-challenged human macrophages
Protocol: (§2) All chemicals, unless otherwise indicated, were procured from Sigma-Aldrich and used without additional purification. Stock solutions of Docosahexaenoic acid (DHA) in Dimethyl Sulfoxide (DMSO), Aspirin in physiologically buffered saline (PBS, pH 7.4) were prepared prior to their use. E. Coli derived Lipopolysaccharide (LPS) was reconstituted at 1 ug/mL, sterile filtered, and stored at −80 C until needed. RAW 264.7 murine macrophage cell line was obtained from ATCC (Manassas, Va.). Cells were thawed at passage 5 or 6 and were maintained in DMEM complete growth media supplemented with 10% FBS (Hyclone, GE Healthcare)+1% Penn/strep (Gibco) until needed. Peripheral blood derived primary human CD14+monocytes (BioreclamationlVT, Albany, N.Y.) were also maintained in DMEM growth media until needed. Prior to experimentation, monocytes were differentiated to macrophages by using macrophage colony stimulating factor (M-CSF) at 25 ng/mL in media for up to three days or until cells had reached near confluence (˜95%). RAW 264.7 cells were seeded at roughly 5,000 cells per well in a 96-well plate and allowed to grow to near confluence. At confluence, cells were pre-treated with LPS for 2 hours. At the 2-hour mark, cells were treated with DMEM media containing DMSO (1% w/w, negative control), Aspirin (positive control, 10 nmol/L), DHA (100 umol/L) or a combination of the two. Bio-active composite material Hydroxyapatite-Docosahexaenoic acid (HA-DHA) was dispersed in DMSO and delivered at similar concentrations as DHA alone (described above). Cells were harvested at 2, 4, and 6 hours after LPS stimulation. Human CD14+ cells were seeded at roughly 3.3*10^4 cells per well in a 96-well plate and treated with MCSF until full confluence. Cells were treated with LPS for 2 hours, at which time they were exposed to the same treatments described above for RAW 264.7 cells. Cells were harvested at 4 and 6 hours. […]
as §1
(§3) To investigate further the anti-inflammatory effects the inventors observed in both human and murine macrophages challenged with pathogenic LPS and to determine if the bio-active composite material HA-DHA on its' own and in combination with Aspirin induces formation of pro-resolution mediators, the inventors measured Resolvin production secreted from challenged human macrophages.

[3] = tested on: Resolvin D2 (RvD2) expression and release; assay: Resolvin D2 ELISA, LPS-challenged human macrophages
Protocol: as §2, §1, §3

[4] = earlier time point (FIG. 19, Table 2)
[5] = 2 hours LPS + 6 hours treatment (Table 5)

CC(=O)Oc1ccccc1C(=O)O [Aspirin]
TNF-alpha expression (Mean) [1]: 9.1 pg/µg
Resolvin D1 (RvD1) expression and release (Mean) ([2]; 2-hour+6-hour Tx (Table 3)): 16.96
Resolvin D1 (RvD1) expression and release (Mean) [2, 4]: 18.87
Resolvin D2 (RvD2) expression (Mean) ([3]; 2 hour LPS+4 hr Tx (Table 4)): 25.02
Resolvin D2 (RvD2) expression (Mean) [3, 5]: 73.25

CC/C=C\C/C=C\C/C=C\C/C=C\C/C=C\C/C=C\CCC(=O)O [DHA, 4Z, 7Z, 10Z, 13Z, 16Z, 19Z)-docosa-4,7,10,13,16,19-hexaenoic acid]
TNF-alpha expression (Mean) [1]: 10.5 pg/µg
Resolvin D1 (RvD1) expression and release (Mean) ([2]; 2-hour+6-hour Tx (Table 3)): 678
Resolvin D1 (RvD1) expression and release (Mean) [2, 4]: 771.1
Resolvin D2 (RvD2) expression (Mean) ([3]; 2 hour LPS+4 hr Tx (Table 4)): 194.2
Resolvin D2 (RvD2) expression (Mean) [3, 5]: 161.9

— patent US20190254274A1, “COMPOSITE MATERIALS DESIGNED TO POSSES BIO-ACTIVE PROPERTIES AND SYNTHESIS AND USES THEREO” (ADA Foundation, priority 2018, published 2019)
